# Assays:
# [1] = target: N-lysine methyltransferase SMYD2 (Homo sapiens) (UniProt Q9NRG4); test: Selectivity interaction (Methyltransferase screen (Scintillation proximity assays)) EUB0000255b SMYD2
# [2] = target: T1, Non-receptor tyrosine-protein kinase TNK1 (Homo sapiens) (UniProt Q13470); test: Selectivity interaction (KinomeScan (DiscoverX)) EUB0000092b TNK1; conditions: at 10 µM
# T1 sequence (whole entry): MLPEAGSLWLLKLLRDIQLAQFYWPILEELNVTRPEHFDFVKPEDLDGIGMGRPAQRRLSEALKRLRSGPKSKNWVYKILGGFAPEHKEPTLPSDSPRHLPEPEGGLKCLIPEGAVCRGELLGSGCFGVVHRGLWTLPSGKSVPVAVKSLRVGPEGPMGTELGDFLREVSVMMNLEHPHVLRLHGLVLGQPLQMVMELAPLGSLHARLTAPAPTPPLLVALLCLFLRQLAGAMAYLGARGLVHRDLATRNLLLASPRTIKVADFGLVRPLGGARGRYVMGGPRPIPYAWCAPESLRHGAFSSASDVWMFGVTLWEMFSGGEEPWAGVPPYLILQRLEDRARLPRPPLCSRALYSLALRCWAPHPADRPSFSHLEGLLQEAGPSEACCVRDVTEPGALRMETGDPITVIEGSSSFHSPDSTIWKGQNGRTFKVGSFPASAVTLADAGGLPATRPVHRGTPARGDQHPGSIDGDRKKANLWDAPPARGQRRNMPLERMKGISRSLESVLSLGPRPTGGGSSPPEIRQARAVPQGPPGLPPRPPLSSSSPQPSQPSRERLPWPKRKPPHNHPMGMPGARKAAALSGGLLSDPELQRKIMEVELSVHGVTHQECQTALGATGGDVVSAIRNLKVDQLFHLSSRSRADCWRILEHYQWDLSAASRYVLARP
# [3] = target: Serine/threonine-protein kinase MRCK alpha (Homo sapiens) (UniProt Q5VT25); test: Selectivity interaction (Upstate Kinase Profiler service (Millipore)) EUB0000056c CDC42BPA; conditions: at 1 µM
# [4] = target: Mitogen-activated protein kinase kinase kinase 20 (Homo sapiens) (UniProt Q9NYL2); test: Selectivity interaction (KinomeScan (DiscoverX)) EUB0000655a MAP3K20; conditions: at 10 µM
# [5] = target: STE20/SPS1-related proline-alanine-rich protein kinase (Homo sapiens) (UniProt Q9UEW8); test: Selectivity interaction (ProQinase) EUB0000171b STK39
# [6] = target: Tyrosine-protein kinase ABL2 (Homo sapiens, UniProt P42684); test: Selectivity interaction (KinomeScan (DiscoverX)) EUB0000666a ABL2; conditions: at 10 µM
# [7] = target: G protein-coupled receptor kinase 4 (Homo sapiens) (UniProt P32298); test: Selectivity interaction (KinomeScan (DiscoverX)) EUB0000666a GRK4; conditions: at 10 µM
# [8] = target: Hepatocyte growth factor receptor (Homo sapiens, UniProt P08581); test: Selectivity interaction (Millipore kinase profiler) EUB0000124b MET; conditions: at 10 µM
# [9] = target: CDK9/Cyclin K (Homo sapiens) (UniProt P50750+O75909); test: Selectivity interaction (LanthaScreen Eu Kinase Binding Assay) EUB0001632a CDK9; format: protein-complex assay; conditions: at 10 µM
# [10] = target: Serine/threonine-protein kinase MARK2 (Homo sapiens) (UniProt Q7KZI7); test: Selectivity interaction (ActivX KiNativ screen (kinase selectivity in THP-1 cell lysates)) EUB0000639a MARK2; format: subcellular; conditions: lysate, at 0.04 µM
# D(1A) dopamine receptor = D(1A) dopamine receptor (Homo sapiens, UniProt P21728); test: Selectivity interaction (Panel of kinases, GPCRs, ion channels and transporters (enzymatic assay)) EUB0000223bCl DRD1
# [11] = target: T2, Alpha-2A adrenergic receptor (Homo sapiens) (UniProt P08913); test: Selectivity interaction (Panel of non-epigenetic targets (kinases, GPCRs, ion channels, and transporters, Eurofins) ) EUB0000271b ADRA2A; conditions: at 1 µM
# T2 sequence (whole entry): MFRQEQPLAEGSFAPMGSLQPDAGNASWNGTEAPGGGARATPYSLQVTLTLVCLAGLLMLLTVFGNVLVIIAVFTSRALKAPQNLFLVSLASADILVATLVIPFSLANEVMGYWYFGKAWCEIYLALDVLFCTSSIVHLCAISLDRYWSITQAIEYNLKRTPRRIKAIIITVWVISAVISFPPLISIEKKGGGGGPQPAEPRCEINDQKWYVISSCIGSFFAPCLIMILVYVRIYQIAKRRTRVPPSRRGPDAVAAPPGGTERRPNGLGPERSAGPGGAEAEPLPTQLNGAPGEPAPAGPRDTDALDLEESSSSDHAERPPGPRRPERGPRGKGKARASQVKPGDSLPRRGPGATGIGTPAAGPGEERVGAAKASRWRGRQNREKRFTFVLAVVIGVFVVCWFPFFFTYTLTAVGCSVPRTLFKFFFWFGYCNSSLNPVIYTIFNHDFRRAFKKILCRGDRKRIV
# [12] = target: T3, Dual specificity mitogen-activated protein kinase kinase 6 (Homo sapiens) (UniProt P52564); test: Selectivity interaction (KinomeScan (DiscoverX)) EUB0000695a MAP2K6; conditions: at 100 nM
# T3 sequence (whole entry): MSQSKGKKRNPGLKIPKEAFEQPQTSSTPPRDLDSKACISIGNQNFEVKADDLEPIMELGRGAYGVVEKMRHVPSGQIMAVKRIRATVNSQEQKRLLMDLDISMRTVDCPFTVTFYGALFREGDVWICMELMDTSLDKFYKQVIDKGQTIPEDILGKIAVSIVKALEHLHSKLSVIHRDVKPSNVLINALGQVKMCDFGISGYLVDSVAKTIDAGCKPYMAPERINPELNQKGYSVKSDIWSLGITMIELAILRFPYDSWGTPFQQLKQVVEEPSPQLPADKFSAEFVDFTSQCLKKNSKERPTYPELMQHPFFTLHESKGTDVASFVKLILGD
# [13] = target: Sodium- and chloride-dependent GABA transporter 1 (Homo sapiens) (UniProt P30531); test: Selectivity interaction (Eurofins CEREP Diversity Profile (receptors and ion channels)) EUB0000279b SLC6A1; conditions: at 10 µM
# [14] = target: Tyrosine-protein kinase SYK (Homo sapiens, UniProt P43405); test: Selectivity interaction (KinomeScan (DiscoverX)) EUB0001619a SYK; conditions: at 1 µM
# Sequence of N-lysine methyltransferase SMYD2 (Homo sapiens) (Q9NRG4 whole entry): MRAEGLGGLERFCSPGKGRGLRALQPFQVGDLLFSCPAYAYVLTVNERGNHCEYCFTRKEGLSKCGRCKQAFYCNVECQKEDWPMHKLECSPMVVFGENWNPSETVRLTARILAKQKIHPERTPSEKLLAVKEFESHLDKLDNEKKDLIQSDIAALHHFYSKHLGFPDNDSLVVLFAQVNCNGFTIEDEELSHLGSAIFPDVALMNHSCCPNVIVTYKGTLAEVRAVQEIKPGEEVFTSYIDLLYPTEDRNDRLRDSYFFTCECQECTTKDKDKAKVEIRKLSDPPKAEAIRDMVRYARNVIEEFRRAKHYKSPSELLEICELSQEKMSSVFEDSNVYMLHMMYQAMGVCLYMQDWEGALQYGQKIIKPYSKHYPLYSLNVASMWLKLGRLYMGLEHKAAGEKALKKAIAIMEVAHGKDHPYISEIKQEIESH
# Sequence of Tyrosine-protein kinase ABL2 (P42684 whole entry): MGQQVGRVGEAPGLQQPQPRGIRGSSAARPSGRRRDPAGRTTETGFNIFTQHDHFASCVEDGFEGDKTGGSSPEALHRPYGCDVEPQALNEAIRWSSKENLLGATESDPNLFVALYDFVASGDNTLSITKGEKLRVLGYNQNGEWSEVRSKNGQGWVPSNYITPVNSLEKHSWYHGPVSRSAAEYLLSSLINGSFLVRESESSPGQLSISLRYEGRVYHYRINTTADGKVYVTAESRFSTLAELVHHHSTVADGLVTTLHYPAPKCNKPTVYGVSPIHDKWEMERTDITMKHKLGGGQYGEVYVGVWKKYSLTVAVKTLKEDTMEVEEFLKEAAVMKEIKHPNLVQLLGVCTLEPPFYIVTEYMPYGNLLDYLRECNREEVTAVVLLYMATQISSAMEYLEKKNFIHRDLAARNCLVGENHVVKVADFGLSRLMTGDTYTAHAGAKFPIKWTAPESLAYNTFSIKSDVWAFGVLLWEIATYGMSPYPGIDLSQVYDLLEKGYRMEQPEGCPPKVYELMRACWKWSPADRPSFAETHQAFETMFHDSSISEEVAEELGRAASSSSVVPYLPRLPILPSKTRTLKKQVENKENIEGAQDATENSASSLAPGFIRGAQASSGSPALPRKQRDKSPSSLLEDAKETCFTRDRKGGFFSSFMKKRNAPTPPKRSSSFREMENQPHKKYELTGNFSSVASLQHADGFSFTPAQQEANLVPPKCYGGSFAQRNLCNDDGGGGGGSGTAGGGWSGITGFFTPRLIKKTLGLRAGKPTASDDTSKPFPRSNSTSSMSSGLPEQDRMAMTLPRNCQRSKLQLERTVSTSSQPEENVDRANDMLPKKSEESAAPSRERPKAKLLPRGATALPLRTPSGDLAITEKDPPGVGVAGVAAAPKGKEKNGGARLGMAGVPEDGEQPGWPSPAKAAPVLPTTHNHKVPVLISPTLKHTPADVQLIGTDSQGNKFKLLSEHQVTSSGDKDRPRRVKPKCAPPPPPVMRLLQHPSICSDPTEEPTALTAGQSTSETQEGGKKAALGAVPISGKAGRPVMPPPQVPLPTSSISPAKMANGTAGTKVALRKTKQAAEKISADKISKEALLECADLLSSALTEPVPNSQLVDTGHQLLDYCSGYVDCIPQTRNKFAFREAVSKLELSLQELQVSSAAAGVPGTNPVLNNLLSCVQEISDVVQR
# Sequence of G protein-coupled receptor kinase 4 (Homo sapiens) (P32298 whole entry, looked up): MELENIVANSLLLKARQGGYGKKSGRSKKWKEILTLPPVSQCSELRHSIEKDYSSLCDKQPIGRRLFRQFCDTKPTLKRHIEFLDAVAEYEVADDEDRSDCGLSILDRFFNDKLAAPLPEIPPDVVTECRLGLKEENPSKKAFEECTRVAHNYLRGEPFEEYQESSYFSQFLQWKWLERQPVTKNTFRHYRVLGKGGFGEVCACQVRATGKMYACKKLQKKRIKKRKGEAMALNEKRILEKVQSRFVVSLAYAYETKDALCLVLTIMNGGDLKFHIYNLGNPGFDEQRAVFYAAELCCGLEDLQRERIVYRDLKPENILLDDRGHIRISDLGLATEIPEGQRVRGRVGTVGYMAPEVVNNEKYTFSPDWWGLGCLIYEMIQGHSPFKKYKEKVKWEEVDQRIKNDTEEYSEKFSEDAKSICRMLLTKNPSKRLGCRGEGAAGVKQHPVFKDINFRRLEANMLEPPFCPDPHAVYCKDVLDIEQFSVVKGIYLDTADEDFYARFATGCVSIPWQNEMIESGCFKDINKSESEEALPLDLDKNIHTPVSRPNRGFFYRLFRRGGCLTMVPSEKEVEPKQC
# Sequence of Sodium- and chloride-dependent GABA transporter 1 (Homo sapiens) (P30531 whole entry, looked up): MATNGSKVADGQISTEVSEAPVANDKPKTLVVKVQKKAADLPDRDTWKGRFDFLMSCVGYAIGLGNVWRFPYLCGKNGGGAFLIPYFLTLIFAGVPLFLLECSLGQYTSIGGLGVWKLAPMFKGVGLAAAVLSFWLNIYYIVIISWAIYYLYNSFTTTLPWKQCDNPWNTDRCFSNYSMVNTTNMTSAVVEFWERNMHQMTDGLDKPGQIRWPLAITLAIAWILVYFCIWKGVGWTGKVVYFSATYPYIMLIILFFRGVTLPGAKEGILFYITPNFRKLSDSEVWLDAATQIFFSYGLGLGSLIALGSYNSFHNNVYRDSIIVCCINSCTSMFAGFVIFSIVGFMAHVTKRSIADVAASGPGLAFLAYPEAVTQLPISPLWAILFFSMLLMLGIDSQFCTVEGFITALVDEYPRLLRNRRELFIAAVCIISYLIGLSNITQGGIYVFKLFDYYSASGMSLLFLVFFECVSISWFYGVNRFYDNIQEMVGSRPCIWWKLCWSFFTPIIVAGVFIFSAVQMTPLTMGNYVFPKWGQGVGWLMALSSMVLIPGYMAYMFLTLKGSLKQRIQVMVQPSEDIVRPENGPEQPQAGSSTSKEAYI
# Sequence of Serine/threonine-protein kinase MARK2 (Homo sapiens) (Q7KZI7 whole entry): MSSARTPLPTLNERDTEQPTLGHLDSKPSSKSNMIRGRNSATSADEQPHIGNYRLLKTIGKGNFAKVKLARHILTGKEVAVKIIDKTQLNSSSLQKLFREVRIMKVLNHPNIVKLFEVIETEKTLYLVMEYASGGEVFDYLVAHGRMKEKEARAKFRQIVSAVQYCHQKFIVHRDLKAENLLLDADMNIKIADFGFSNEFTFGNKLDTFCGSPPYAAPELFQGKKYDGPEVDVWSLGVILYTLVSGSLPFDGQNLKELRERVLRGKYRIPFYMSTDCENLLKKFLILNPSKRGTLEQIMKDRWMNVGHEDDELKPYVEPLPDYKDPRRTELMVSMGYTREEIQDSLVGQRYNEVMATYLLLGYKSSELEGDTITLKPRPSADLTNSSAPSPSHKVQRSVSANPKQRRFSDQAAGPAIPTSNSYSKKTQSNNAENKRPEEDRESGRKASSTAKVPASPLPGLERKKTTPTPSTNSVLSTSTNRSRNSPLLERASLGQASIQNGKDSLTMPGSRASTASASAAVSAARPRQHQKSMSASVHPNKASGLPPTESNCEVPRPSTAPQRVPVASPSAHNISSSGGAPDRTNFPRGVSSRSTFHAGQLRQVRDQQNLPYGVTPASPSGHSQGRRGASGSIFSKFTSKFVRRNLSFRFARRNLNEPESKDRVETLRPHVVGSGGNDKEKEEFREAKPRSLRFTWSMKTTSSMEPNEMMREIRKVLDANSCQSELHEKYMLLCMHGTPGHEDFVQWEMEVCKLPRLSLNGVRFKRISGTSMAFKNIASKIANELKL
# Sequence of Hepatocyte growth factor receptor (P08581 whole entry): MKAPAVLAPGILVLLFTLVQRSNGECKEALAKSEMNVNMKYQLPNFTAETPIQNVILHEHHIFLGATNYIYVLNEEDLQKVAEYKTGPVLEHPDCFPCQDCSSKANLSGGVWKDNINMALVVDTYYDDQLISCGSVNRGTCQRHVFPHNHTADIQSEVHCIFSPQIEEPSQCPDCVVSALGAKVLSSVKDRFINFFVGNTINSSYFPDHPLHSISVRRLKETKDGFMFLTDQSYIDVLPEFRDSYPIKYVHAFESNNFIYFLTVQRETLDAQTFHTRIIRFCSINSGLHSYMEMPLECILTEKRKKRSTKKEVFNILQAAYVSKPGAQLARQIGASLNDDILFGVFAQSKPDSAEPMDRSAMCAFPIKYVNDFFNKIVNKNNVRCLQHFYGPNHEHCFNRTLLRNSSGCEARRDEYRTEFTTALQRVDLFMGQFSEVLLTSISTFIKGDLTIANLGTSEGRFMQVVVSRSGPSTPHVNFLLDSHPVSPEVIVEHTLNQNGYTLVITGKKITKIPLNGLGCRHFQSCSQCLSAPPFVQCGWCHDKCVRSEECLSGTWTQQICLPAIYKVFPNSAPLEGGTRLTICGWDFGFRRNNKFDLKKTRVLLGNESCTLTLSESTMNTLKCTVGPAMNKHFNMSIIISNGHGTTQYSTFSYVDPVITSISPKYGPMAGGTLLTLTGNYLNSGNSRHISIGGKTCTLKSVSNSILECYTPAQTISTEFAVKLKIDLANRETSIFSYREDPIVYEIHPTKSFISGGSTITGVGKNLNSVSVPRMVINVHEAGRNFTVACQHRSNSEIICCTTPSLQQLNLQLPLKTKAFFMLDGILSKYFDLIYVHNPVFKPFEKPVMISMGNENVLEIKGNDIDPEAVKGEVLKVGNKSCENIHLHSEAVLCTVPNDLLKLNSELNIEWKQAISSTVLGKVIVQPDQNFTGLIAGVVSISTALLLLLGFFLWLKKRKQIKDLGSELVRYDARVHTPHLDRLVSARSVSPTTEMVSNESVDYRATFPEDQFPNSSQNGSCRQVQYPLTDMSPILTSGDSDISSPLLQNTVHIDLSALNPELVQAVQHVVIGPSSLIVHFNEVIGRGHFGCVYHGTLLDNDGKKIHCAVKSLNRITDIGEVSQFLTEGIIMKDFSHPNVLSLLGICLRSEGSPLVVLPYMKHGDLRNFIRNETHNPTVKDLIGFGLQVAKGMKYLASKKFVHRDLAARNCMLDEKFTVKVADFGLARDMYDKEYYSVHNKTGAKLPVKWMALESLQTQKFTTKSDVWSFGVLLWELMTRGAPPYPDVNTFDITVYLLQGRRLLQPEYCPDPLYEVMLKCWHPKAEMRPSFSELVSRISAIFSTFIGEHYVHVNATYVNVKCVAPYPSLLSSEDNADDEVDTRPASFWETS
smiles,measurement,setting,value
COCCN1CCC(c2cc(CN(C)C(=O)c3cccc(Oc4ccccc4)c3)ccn2)CC1,% activity,[1]; at 1 µM,> 95%
same,% activity,[1]; at 10 µM,> 90%
CCC(=O)N1CCN(c2ccc(-n3c(=O)ccc4cnc5ccc(-c6cnc7ccccc7c6)cc5c43)cc2C(F)(F)F)CC1,% of control,[2],6.8%
Cc1ccc(-c2ccc3c(ccc4sc5c(c43)NC[C@@H](C)NC5=O)n2)cn1,% of inhibition,[3],-21%
CN(C)CCOc1ccc(-c2nc(-c3ccncc3)c(-c3ccc4c(c3)CC/C4=N\O)[nH]2)cc1,% of control,[4],84%
C=CC(=O)Nc1cccc(C(=O)Nc2ccc(Nc3cc(-c4[nH]c(SC)nc4C)ccn3)cc2)c1,% of control,[5]; at 1 µM,100%
same,% of control,[5]; at 5 µM,73%
O=C(NOC[C@H](O)CO)c1ccc(F)c(F)c1Nc1ccc(I)cc1F,% of control,[6],90%
same,% of control,[7],100%
CC(=O)Nc1cccc(-n2c(=O)n(C3CC3)c(=O)c3c(Nc4ccc(I)cc4F)n(C)c(=O)c(C)c32)c1,% of control,[8],150%
Cn1cc(-n2cnc3c(NCc4nc5cc(Cl)c(Cl)cc5[nH]4)nc(N4CCOCC4)nc32)cn1,% of inhibition,[9],-32.1%
CC[C@@H]1[C@H](F)C(=O)N[C@@H]1COc1nccc2cc(C(N)=O)c(OC)cc12 [ZIMLOVISERTIB],% of inhibition,[10],0.7%
COc1cc(C(=O)N2CC[C@@H](O)[C@@H](N)C2)cc2nc(-c3cc4ccccc4n3CC3CC3)n(C)c12,pXC50,D(1A) dopamine receptor,< 4.5 M
Cc1cc(C)cc([C@@H]2c3cc(C)ccc3NC(=O)CN2C(=O)c2ccc(Br)s2)c1,% of inhibition,[11],-8%
Cc1cc(F)c(C(=O)Nc2cccc(-c3nncn3C(C)C)n2)cc1-n1cnc(C2CC2)c1,% of control,[12],100%
CC(=O)c1cc(-c2ccccc2OCC2CC2)c2ncccn12,% of control,[13],107%
N#Cc1cccc(-c2c[nH]c3ncnc(N4CCOCC4)c23)c1,% of control,[14],100%
